Measurements from patent US20100068150A1, “Selective Caspase Inhibitors” (The Board of Trustees of the Leland Stanford Junior …, priority 2006, published 2010).

Legend:
[1] = tested on: cathepsin B and legumain; assay: In vivo labeling of cathepsin B and legumain in kidney and spleen of normal mice; settings: intravenous, tissues collected 2 hrs after injection
Experimental: The present selective caspase inhibitors may be used for in vivo imaging. Cy5-fluorescent labeled versions of AB46 and AB50 were injected into normal mice and labeling of cathepsins and legumain in kidney and spleen was monitored (FIG. 14).
Normal mice were intravenously injected with the probes and tissues were collected 2 hrs after injection. Tissues were homogenized and total protein samples were analyzed by SDS-PAGE followed by scanning of the gel using a fluorescent scanner.

[2] = target: T1, caspase-3 (Mus musculus, UniProt P70677); assay: In vivo labeling of caspase-3 in the thymus of dexamethazone treated mice; settings: dexamethazone 40 mg/kg IP, probe by tail vein after 12 or 24 hrs, 3 hrs circulation
T1 construct: from tissue; host or cells: thymus of Balb-c mice
T1 sequence (P70677 29-175 limits assumed): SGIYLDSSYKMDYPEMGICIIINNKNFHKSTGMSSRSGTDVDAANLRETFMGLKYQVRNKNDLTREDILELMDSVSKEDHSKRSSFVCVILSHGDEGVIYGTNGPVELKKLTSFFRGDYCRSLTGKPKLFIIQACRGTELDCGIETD
T1 sequence (P70677 176-277 limits assumed): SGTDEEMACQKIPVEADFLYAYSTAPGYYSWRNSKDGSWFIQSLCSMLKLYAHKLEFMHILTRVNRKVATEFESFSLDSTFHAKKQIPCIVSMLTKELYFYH
From the text: The following example utilizes dexamethazone-induced apoptosis in the thymus. See, Cristina et al., “Dexamethasone-induced apoptosis of thymocytes: role of glucocorticoid receptor-associated Src kinase and caspase-8 activation,” prepublished online as a Blood First Edition Paper on Aug. 29, 2002; DOI 10.1182/blood-2002-06-1779. This is a particularly simple model that allows one to activate apoptosis specifically in the thymus by injection of normal mice with low doses of dexamethazone. […] Also, one can monitor changes in activation of caspases with time after induction of apoptosis.
Wild Type Balb-c mice were injected with dexamethazone (40 mg/kg) by IP injection. After 12 or 24 hrs the general caspase probe AB50 was injected by tail vein and the probe allowed to circulate for 3 hrs, at which time tissues from thymus, lung, liver, and kidney were collected. We removed the thymus, kidney and lung and imaged the whole organs using the IVIS2000 system. The tissues were then analyzed by SDS-PAGE and fluorescent scanning of the gels. For comparison we monitored the levels of cleaved, active caspase-3 using a specific antibody. […] An antibody against actin was used as a loading control.

Cc1cccc(C)c1C(=O)OCC(=O)[C@H](CC(=O)O)NC(=O)C1CCCN1C(=O)[C@@H](CCC(=O)O)NC(=O)Cc1ccc(O)c([N+](=O)[O-])c1 (stereo partly drawn) [AB50, NP-E-P- D-AOMK]
in vivo labeling in kidney and spleen [1]: only labeled legumain | in vivo labeling of caspase-3 in thymus [2]: Bands can be clearly seen at the caspase-3 estimated MW
